According to patent US8501446B2 (Vertex Pharmaceuticals Incorporated, priority 2004, dated 2013):
Where two headings read alike, the source gives them in different places.

Tests used:
Type in all cases: biochemical
JAK3 = molecular target: T1, JAK3 (Homo sapiens, UniProt P52333); test: JAK3 inhibition assay (standard radioactive enzyme assay); conditions: average Ki if more than one value determined
T1 sequence (P52333 1-1124): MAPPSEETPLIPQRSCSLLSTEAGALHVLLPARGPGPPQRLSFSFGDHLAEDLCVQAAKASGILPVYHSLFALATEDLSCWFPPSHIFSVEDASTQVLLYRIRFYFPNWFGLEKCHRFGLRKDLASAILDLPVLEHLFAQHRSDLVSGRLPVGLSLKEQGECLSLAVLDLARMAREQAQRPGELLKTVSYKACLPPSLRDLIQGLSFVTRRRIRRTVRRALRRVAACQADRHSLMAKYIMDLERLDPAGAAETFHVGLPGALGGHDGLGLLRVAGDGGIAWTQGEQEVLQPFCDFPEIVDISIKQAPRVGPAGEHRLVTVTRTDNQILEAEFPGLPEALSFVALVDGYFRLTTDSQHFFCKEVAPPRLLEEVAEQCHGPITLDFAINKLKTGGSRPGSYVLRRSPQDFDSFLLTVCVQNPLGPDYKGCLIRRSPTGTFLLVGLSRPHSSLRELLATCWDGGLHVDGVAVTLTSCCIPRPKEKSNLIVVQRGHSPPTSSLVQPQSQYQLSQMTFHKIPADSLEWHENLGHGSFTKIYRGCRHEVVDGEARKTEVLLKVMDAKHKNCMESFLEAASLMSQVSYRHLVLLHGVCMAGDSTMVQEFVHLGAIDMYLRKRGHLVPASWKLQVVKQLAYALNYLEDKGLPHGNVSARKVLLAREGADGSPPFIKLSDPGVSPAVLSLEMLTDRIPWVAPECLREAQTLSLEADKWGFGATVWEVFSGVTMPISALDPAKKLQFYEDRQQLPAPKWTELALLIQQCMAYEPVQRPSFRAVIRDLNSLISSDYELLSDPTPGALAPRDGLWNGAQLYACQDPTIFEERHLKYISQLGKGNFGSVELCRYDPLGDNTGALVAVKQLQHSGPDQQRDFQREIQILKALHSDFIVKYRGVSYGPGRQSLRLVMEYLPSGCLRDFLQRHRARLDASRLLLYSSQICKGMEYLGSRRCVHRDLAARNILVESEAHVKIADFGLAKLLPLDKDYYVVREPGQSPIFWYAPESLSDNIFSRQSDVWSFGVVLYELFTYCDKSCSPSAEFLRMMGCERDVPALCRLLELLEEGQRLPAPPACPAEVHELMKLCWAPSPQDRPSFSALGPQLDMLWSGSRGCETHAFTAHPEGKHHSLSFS

[1] = molecular target: T2, full length Aurora-A (AA 1-403) (Homo sapiens, UniProt O14965); test: Aurora-A inhibition assay, standard coupled enzyme system; conditions: average Ki if more than one value determined
T2 construct: full length Aurora-A (AA 1-403)
T2 sequence (O14965 1-403): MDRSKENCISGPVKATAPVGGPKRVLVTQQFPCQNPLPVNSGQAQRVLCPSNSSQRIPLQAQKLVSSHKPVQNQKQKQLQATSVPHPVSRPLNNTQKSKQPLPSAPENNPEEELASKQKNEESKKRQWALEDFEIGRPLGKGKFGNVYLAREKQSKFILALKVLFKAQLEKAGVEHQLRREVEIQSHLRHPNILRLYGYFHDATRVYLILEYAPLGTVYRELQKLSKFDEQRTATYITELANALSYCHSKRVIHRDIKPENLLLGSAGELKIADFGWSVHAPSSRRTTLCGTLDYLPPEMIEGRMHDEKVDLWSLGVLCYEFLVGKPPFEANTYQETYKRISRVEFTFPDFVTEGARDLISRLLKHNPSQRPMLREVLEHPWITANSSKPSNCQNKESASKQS

JAK2 = JAK2 (Homo sapiens, UniProt O60674); test: JAK2 inhibition assay (radioactive enzyme assay, as for JAK3); conditions: average Ki if more than one value determined
Outline: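 Both kinases: poly(Glu)4Tyr substrate in 100 mM HEPES pH 7.4, 10 mM MgCl2, 1 mM DTT. Run 20 min at 25° C, TCA stop, filter-bound ³³P counted, Ki(app) fitted after background subtraction. JAK3: final [γ-³³P]ATP 5 μM, enzyme added as 2 nM solution. JAK2: final poly(Glu)4Tyr 15 μM, final ATP 12 μM.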

ROCK = ROCK (Homo sapiens, UniProt Q13464); test: ROCK inhibition assay, standard radioactive enzyme assay ("33P")
Method: Some compounds were screened for their ability to inhibit ROCK using a standard radioactive enzyme assay. Assays were carried out in a solution containing 100 mM HEPES (pH 7.5), 10 mM MgCl2, 25 mM NaCl, 2 mM DTT, and 1.5% DMSO. Final substrate concentrations in the assay were 13 μM [γ-^33P] ATP (25 mCi ^33P ATP/mmol ATP, Perkin Elmer, Cambridge, Mass./Sigma Chemicals, St Louis, Mo.) and 27 μM Myelin Basic Protein (MBP). Final enzyme concentration in the assay was 5 nM ROCK. Assays were carried out at room temperature. 1.5 μl of DMSO stock containing serial dilutions of the compound of the present invention (concentrations ranging from 10 μM to 2.6 nM) was placed in a 96 well plate. 50 μl of Solution 1 (100 mM HEPES (pH 7.5), 10 mM MgCl2, […]) was added to the plate. The reaction was initiated by addition of 50 μl of Solution 2 (100 mM HEPES (pH 7.5), 10 mM MgCl2, 4 mM DTT, […] and 10 nM ROCK). After 2 hours the reaction was quenched with 50 μL of 30% trichloroacetic acid (TCA, Fisher) containing 9 mM ATP. Transfer of 140 μL of the quenched reaction to a glass fiber filter plate (Corning, Cat. No. 3511) was followed by washing 3 times with 5% TCA. 50 μL of Optima Gold scintillation fluid (Perkin Elmer) was added and the plates were counted on a Top Count (Perkin Elmer). After removing mean background values for all of the data points the data was fit using Prism software to obtain a Ki(app).

ROCK I (AA 6-553) = molecular target: T3, ROCK I (AA 6-553) (Homo sapiens, UniProt Q13464); test: ROCK inhibition assay, standard coupled enzyme system ("Enzyme"); conditions: enzyme-linked assay
T3 construct: ROCK I (AA 6-553)
Outline: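 ROCK I (AA 6-553) at 45 nM and 30 °C with 45 μM ATP and 200 μM peptide, in 100 mM HEPES pH 7.5, 10 mM MgCl2, 25 mM NaCl, 2 mM DTT, 1.5% DMSO. ADP output read by a PK/LDH coupled system: 2.5 mM PEP, 350 μM NADH, 30 μg/ml PK, 10 μg/ml LDH.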

Aurora-B = Aurora-B (Homo sapiens, UniProt Q96GD4); test: Aurora-B inhibition assay, radioactive assay; conditions: average Ki if more than one value determined
Outline: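 Aurora-B protein substituted into the standard radioactive kinase format: reaction quenched with TCA, product captured on glass fiber filters and 33P counted. Ki(app) derived by fitting background-corrected counts against inhibitor concentration.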

JAK2, sequence (O60674 whole entry, species assumed): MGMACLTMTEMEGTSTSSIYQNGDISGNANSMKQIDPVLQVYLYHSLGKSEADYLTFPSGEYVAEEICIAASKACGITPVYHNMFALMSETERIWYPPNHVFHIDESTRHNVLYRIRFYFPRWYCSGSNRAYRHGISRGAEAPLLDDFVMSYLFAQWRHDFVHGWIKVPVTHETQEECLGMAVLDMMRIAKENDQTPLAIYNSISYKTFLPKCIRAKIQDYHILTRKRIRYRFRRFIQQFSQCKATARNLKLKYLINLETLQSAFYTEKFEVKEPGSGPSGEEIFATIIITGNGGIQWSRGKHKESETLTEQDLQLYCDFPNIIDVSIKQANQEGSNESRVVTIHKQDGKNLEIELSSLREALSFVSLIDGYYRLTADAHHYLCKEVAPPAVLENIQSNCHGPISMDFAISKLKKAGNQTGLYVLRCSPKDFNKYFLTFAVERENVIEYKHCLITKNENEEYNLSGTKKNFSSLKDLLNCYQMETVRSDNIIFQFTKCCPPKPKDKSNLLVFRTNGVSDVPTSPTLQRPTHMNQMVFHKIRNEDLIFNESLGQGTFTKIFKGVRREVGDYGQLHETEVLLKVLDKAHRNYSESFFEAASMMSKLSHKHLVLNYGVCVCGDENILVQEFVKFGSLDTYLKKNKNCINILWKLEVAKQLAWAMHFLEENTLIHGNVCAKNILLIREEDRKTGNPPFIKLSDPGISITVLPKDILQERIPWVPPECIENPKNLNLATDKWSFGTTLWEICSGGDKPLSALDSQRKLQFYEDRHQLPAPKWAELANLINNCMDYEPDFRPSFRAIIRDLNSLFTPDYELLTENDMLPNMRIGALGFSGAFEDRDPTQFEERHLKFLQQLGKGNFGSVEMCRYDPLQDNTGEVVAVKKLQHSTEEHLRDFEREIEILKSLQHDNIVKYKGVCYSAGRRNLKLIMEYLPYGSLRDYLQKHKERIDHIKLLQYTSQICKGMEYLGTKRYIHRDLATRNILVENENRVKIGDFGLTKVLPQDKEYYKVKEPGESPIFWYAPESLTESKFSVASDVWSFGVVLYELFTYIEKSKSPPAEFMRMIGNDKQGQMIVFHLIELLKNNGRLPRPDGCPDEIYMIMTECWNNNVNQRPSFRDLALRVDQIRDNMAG
ROCK, sequence (Q13464 whole entry): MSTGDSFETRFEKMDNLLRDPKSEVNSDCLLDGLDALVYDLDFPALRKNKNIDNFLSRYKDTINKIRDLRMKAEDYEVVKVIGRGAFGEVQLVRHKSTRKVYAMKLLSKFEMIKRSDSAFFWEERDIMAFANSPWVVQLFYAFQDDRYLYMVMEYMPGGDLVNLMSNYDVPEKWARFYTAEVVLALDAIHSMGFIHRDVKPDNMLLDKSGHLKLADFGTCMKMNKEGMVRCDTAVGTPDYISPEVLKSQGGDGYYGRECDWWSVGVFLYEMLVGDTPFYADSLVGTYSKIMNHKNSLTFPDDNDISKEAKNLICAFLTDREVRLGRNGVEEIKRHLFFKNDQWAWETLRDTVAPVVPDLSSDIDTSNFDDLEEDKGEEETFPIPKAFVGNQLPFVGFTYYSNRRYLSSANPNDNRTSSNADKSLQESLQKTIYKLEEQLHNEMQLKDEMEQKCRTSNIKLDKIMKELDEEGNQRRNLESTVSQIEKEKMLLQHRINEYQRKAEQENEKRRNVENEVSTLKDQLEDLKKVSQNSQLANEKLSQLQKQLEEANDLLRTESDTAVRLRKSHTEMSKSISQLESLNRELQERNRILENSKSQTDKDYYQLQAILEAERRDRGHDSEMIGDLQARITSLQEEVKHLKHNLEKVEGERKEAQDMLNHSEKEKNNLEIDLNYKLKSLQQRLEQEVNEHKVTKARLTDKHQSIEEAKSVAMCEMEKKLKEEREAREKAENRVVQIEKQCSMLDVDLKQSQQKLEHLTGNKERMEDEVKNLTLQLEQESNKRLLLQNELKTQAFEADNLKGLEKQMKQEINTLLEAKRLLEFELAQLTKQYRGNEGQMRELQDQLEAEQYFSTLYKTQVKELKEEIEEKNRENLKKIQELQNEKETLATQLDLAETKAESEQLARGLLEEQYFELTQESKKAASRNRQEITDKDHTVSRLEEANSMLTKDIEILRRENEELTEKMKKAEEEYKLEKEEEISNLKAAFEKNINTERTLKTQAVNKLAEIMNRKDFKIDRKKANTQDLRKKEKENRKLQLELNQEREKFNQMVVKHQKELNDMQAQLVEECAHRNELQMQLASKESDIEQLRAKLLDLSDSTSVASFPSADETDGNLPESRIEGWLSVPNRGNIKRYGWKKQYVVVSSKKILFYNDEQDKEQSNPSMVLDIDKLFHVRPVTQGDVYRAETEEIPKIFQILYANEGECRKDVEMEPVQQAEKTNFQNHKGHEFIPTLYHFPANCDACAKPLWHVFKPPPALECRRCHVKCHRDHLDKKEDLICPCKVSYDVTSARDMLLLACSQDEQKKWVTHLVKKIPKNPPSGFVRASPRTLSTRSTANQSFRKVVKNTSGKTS
T3 sequence (Q13464 6-553, species assumed): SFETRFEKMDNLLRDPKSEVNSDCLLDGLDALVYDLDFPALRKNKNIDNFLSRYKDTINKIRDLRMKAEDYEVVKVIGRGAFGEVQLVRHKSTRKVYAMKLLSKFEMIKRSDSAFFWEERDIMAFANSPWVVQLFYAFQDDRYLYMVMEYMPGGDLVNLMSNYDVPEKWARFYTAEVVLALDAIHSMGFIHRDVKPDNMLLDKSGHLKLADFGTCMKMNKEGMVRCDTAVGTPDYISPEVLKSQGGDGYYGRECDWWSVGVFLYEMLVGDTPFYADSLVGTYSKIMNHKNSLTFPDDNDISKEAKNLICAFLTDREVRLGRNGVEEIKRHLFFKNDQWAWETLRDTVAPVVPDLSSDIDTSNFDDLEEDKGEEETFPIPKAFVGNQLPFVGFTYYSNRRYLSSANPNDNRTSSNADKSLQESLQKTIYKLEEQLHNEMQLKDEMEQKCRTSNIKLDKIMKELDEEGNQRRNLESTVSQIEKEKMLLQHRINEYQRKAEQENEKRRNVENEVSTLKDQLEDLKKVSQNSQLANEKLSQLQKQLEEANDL
Aurora-B, sequence (Q96GD4 whole entry): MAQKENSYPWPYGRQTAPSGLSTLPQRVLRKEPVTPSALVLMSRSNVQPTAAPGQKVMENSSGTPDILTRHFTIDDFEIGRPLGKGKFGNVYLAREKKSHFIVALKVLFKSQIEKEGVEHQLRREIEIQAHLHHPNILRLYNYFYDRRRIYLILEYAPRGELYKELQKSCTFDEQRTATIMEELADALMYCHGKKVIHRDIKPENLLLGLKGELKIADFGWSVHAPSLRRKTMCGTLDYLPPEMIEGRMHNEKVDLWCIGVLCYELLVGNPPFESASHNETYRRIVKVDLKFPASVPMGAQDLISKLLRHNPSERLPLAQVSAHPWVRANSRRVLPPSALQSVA

Ki (JAK3) [nM] | Ki [1] [nM] | Ki (JAK2) [nM] | Ki (ROCK) [nM] | Ki (ROCK I (AA 6-553)) [nM] | Ki (Aurora-B) [nM] | Ki (JAK3; Ki(app)) [nM] | Ki (JAK2; Ki(app)) [nM] | Ki (ROCK; Ki(app)) [nM] | SMILES
< 500 | – | < 500 | < 500 | – | – | – | – | – | CCS(=O)(=O)N1CCCN(c2nccc(-c3c[nH]c4ncc(OC)cc34)n2)CC1 [Compound 31]
– | < 500 | – | 500 to 5000 | – | 500 to 5000 | – | – | – | Nc1ccc(-c2c(-c3ccccc3)[nH]c3ncc(Br)cc23)cc1 [Compound 212]
< 500 | – | < 500 | < 500 | – | – | – | – | – | CC(=O)N1CCCN(c2nccc(-c3c[nH]c4ncc(-c5cccnc5)cc34)n2)CC1 [Compound 3]
< 500 | < 500 | < 500 | < 500 | – | – | – | – | – | COc1cnc2[nH]cc(-c3ccnc(N4CCCN(S(C)(=O)=O)CC4)n3)c2c1 [Compound 30]
< 500 | – | < 500 | 500 to 5000 | – | – | – | – | – | CC(=O)N1CCCN(c2nccc(-c3c[nH]c4ncc(C(N)=O)cc34)n2)CC1 [Compound 1]
< 500 | – | < 500 | < 500 | – | – | – | – | – | CN(Cc1ccccc1)c1cc(-c2c[nH]c3ncccc23)ncn1 [Compound 26]
< 500 | – | < 500 | < 500 | – | – | – | – | – | c1cncc(CNc2nccc(-c3c[nH]c4ncccc34)n2)c1 [Compound 6]
< 500 | < 500 | < 500 | < 500 | – | – | – | – | – | CC(C)C[C@@H](CO)Nc1nccc(-c2c[nH]c3ncc(Cl)cc23)n1 [Compound 10]
< 500 | < 500 | < 500 | 500 to 5000 | – | – | – | – | – | CC(=O)N1[C@H](C)CN(c2nc(-c3c[nH]c4ncc(Cl)cc34)ccc2C(N)=O)C[C@@H]1C [Compound 32]
< 500 | < 500 | < 500 | < 500 | – | – | – | – | – | COc1cnc2[nH]cc(-c3ccnc(N4C[C@@H](C)N(C(C)=O)[C@@H](C)C4)n3)c2c1 [Compound 25]
< 500 | 500 to 5000 | < 500 | < 500 | – | – | – | – | – | COc1cnc2[nH]cc(-c3cc(N[C@@H](C)c4ccccc4)ncn3)c2c1 [Compound 14]
< 500 | – | < 500 | < 500 | – | – | – | – | – | FC(F)(F)c1cccc(CNc2cc(-c3c[nH]c4ncccc34)ncn2)c1 [Compound 22]
< 500 | – | < 500 | < 500 | – | – | – | – | – | Nc1cccc(CNc2cc(-c3c[nH]c4ncccc34)ncn2)c1 [Compound 28]
< 500 | – | < 500 | 500 to 5000 | – | – | – | – | – | c1ccc(CNc2nccc(-c3c[nH]c4ncc(-c5cccnc5)cc34)n2)cc1 [Compound 2]

Second part, the compound before the results:

SMILES | Ki (JAK3) [nM] | Ki [1] [nM] | Ki (JAK2) [nM] | Ki (ROCK) [nM] | Ki (ROCK I (AA 6-553)) [nM] | Ki (Aurora-B) [nM] | Ki (JAK3; Ki(app)) [nM] | Ki (JAK2; Ki(app)) [nM] | Ki (ROCK; Ki(app)) [nM]
Clc1cnc2[nH]cc(-c3cccc(NCc4ccccc4)n3)c2c1 [Compound 20] | < 500 | < 500 | < 500 | 500 to 5000 | – | – | – | – | –
Clc1cnc2[nH]cc(-c3ccnc(NCc4ccccc4)n3)c2c1 [Compound 4] | < 500 | < 500 | < 500 | < 500 | – | – | – | – | –
CC(=O)N1[C@H](C)CN(c2cccc(-c3c[nH]c4ncc(NC(=O)OC(C)(C)C)cc34)n2)C[C@@H]1C [Compound 37] | < 500 | – | < 500 | < 500 | 500 to 5000 | – | – | – | –
Fc1ccc(CNc2cc(-c3c[nH]c4ncccc34)ncn2)cc1 [Compound 27] | < 500 | – | < 500 | < 500 | – | – | – | – | –
c1ccc(CNc2ccnc(-c3c[nH]c4ncccc34)n2)cc1 [Compound 11, Benzyl-[2-(1H-pyrrolo[2,3-b]pyridin-3-yl)-pyrimidin-4-yl]amine] | – | – | – | – | – | – | < 500 | < 500 | < 500
COc1cnc2[nH]cc(-c3ccnc(N4CCCN(C(C)=O)CC4)n3)c2c1 [Compound 24] | < 500 | 500 to 5000 | < 500 | < 500 | – | – | – | – | –
Clc1cnc2[nH]cc(-c3ccnc(N4CCCCCC4)n3)c2c1 [Compound 9] | < 500 | 500 to 5000 | < 500 | 500 to 5000 | – | – | 500 to 5000 | 500 to 5000 | 500 to 5000
Fc1cc(F)cc(CNc2cc(-c3c[nH]c4ncccc34)ncn2)c1 [Compound 29] | < 500 | – | < 500 | < 500 | – | – | – | – | –
CCCOC(=O)N1CCCN(c2nccc(-c3c[nH]c4ncc(OC)cc34)n2)CC1 [Compound 34] | < 500 | – | < 500 | 500 to 5000 | < 500 | – | – | – | –
COc1cnc2[nH]cc(-c3cc(N[C@H](C)c4ccccc4)ncn3)c2c1 [Compound 13] | < 500 | – | < 500 | 500 to 5000 | – | – | – | – | –
Clc1cccc(CNc2cc(-c3c[nH]c4ncccc34)ncn2)c1 [Compound 21] | < 500 | – | < 500 | < 500 | – | – | – | – | –
